Experiments:
Assay in all cases: KINOMEscan competition binding
Conditions in all cases: compound 10.0 µM
[1] = target: CDC42BPG (human) (UniProt Q6DT37)
[2] = target: GRK7 (human) (UniProt Q8WTQ7)
[3] = target: NEK1 (human) (UniProt Q96PY6)
[4] = target: MAPK6 (human) (UniProt Q16659)
[5] = target: PTK2B (human) (UniProt Q14289)
[6] = target: PRKCQ (human) (UniProt Q04759)
[7] = target: MYO3A (human) (UniProt Q8NEV4)
[8] = target: FGR (human) (UniProt P09769)
[9] = target: MAP3K4 (human) (UniProt Q9Y6R4)
[10] = target: CAMK1D (human) (UniProt Q8IU85)
CAMK1D (human), sequence (Q8IU85 whole entry, looked up): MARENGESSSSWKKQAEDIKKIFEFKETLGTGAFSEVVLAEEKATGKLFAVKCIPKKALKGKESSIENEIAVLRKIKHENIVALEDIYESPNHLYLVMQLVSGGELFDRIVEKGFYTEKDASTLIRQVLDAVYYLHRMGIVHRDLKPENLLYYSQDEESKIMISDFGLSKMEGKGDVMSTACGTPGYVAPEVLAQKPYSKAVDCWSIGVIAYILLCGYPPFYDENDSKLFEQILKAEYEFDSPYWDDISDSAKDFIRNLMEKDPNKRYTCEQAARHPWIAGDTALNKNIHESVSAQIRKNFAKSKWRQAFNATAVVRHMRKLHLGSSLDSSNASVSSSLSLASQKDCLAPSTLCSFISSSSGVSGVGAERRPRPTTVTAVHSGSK

[11] = target: MAP3K3 (human) (UniProt Q99759)
[12] = target: ACVR1 (human) (UniProt Q04771)
[13] = target: STK32B (human) (UniProt Q9NY57)
STK32B (human), sequence (Q9NY57 whole entry, looked up): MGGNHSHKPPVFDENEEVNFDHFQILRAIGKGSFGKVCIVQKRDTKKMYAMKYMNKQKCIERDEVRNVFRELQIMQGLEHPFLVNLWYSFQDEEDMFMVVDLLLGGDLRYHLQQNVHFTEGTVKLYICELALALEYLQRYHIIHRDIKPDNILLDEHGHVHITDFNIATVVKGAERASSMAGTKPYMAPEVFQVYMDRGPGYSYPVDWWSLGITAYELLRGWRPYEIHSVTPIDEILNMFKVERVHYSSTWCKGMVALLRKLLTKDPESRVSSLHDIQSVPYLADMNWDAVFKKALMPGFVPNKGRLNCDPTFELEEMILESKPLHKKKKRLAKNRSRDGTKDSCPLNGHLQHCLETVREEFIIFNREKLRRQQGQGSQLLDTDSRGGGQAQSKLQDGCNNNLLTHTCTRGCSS

[14] = target: MAPK1 (human) (UniProt P28482)
[15] = target: CAMK2A (human) (UniProt Q9UQM7)
[16] = target: JAK2 JH1 catalytic (human) (UniProt O60674)
[17] = target: MARK1 (human) (UniProt Q9P0L2)
[18] = target: RIOK3 (human) (UniProt O14730)
[19] = target: HIPK4 (human) (UniProt Q8NE63)
[20] = target: STK39 (human) (UniProt Q9UEW8)
[21] = target: RPS6KA5 KD2 (human) (UniProt O75582)
[22] = target: CLK3 (human) (UniProt P49761)
[23] = target: RPS6KA6 KD2 (human) (UniProt Q9UK32)
[24] = target: STK4 (human) (UniProt Q13043)
[25] = target: PI4KB (human) (UniProt Q9UBF8)
PI4KB (human), sequence (Q9UBF8 whole entry, looked up): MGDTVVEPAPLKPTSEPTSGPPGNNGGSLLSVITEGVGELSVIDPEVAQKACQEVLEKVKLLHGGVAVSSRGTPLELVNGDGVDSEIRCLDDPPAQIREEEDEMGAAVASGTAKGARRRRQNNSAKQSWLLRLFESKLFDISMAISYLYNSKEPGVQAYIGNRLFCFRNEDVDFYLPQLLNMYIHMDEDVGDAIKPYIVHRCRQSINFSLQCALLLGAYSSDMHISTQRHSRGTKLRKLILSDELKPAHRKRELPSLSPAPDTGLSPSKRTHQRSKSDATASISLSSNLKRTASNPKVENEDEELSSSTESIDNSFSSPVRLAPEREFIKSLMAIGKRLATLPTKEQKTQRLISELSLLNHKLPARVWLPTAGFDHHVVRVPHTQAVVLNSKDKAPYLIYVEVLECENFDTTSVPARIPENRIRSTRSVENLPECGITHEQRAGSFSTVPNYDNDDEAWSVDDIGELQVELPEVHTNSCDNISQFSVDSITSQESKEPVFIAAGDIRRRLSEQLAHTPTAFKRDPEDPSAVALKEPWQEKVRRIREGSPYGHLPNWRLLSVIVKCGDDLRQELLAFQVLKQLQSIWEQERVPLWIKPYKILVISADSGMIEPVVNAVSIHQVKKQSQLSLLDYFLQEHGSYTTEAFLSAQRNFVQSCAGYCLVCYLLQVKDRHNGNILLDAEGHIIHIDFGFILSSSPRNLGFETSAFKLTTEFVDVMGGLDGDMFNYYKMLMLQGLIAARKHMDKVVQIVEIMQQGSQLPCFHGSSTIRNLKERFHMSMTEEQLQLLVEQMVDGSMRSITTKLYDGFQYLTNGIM

[26] = target: MYLK3 (human) (UniProt Q32MK0)
[27] = target: WEE2 (human) (UniProt P0C1S8)
WEE2 (human), sequence (P0C1S8 whole entry, looked up): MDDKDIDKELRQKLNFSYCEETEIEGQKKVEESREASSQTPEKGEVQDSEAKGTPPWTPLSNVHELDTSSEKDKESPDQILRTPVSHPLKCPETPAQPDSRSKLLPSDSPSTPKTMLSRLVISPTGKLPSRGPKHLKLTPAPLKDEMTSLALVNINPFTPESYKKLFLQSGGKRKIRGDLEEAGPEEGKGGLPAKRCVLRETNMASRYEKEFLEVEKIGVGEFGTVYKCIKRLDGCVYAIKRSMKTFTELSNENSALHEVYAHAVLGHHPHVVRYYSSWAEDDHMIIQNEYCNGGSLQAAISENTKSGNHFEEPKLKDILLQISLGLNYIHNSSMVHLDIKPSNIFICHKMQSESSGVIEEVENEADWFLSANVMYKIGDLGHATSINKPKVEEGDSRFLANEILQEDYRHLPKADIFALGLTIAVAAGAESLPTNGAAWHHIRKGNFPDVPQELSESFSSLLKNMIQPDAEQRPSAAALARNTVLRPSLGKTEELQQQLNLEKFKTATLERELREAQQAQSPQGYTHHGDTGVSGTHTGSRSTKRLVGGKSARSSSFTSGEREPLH

[28] = target: AKT2 (human) (UniProt P31751)
[29] = target: JAK1 JH1 catalytic (human) (UniProt P23458)
[30] = target: EPHA5 (human) (UniProt P54756)
[31] = target: PIM3 (human) (UniProt Q86V86)
[32] = target: CDKL5 (human) (UniProt O76039)
[33] = target: ADCK3 (human) (UniProt Q8NI60)
[34] = target: PRKACA (human) (UniProt P17612)
[35] = target: NTRK2 (human) (UniProt Q16620)
[36] = system: KIT (human), P10721 [V559D/V654A]

CDC42BPG (human), sequence (Q6DT37 whole entry, looked up): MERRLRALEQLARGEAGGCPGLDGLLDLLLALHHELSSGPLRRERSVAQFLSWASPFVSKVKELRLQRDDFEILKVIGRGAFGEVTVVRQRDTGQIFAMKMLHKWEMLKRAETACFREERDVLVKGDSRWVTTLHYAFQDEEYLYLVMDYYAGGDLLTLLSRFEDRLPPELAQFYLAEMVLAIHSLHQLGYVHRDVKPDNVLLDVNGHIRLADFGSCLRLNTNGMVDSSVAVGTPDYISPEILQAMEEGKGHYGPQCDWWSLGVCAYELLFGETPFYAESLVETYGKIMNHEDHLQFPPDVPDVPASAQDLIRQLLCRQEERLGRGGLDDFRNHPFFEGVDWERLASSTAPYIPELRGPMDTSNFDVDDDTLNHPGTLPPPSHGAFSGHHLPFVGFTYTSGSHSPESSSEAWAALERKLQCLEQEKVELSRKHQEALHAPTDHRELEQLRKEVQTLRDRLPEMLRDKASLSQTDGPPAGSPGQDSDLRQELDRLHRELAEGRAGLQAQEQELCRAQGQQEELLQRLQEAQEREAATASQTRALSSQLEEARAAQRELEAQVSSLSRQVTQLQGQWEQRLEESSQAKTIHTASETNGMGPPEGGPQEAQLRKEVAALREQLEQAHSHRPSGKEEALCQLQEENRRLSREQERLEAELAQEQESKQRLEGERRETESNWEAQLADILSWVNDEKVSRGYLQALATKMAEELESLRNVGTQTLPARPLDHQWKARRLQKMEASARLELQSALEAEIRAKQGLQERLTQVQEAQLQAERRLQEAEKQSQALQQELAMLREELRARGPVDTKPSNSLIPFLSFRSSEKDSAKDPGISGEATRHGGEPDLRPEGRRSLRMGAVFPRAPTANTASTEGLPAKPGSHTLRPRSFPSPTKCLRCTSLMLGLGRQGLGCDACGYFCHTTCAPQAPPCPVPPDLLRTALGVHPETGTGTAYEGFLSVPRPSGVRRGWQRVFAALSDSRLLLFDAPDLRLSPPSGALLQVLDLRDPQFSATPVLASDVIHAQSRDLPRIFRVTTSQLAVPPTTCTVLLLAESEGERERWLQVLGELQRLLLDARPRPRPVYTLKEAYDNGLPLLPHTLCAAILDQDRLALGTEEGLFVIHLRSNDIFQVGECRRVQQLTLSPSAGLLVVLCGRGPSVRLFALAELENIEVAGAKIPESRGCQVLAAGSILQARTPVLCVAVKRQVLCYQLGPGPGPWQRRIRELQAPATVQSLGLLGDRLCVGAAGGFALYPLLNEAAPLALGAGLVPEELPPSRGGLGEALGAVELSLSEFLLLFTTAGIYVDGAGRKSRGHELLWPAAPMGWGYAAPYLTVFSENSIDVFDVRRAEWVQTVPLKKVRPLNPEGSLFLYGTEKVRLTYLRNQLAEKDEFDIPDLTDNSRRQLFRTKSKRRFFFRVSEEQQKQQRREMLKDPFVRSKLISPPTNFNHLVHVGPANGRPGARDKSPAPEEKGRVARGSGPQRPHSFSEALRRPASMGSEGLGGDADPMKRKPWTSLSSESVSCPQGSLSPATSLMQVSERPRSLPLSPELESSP
PTK2B (human), sequence (Q14289 whole entry, looked up): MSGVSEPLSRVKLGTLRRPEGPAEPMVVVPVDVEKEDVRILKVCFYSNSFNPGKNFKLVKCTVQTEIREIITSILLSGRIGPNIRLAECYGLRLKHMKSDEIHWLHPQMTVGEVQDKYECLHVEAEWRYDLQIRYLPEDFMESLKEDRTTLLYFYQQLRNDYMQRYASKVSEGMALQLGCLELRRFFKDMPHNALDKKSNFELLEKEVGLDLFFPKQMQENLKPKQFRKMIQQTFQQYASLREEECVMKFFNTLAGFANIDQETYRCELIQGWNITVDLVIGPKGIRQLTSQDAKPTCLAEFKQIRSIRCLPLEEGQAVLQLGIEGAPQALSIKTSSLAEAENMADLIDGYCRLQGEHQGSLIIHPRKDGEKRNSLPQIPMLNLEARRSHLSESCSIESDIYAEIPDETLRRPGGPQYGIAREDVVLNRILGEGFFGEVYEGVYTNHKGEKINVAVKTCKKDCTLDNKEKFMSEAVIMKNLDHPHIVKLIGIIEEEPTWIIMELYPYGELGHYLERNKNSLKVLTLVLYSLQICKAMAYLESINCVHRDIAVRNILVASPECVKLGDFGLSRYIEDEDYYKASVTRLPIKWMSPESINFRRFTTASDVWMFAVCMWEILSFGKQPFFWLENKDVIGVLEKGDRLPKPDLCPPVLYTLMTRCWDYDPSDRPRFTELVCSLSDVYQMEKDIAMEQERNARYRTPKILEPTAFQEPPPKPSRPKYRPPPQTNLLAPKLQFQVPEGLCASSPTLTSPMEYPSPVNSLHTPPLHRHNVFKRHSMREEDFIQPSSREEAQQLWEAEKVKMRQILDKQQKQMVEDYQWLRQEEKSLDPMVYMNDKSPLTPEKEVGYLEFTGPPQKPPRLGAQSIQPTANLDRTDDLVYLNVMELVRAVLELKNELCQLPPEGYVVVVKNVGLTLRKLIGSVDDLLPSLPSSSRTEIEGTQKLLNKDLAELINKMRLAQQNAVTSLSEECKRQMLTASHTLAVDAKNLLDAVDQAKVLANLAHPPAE

SMILES | kinase still bound, per cent of control [1] [%] | kinase still bound, per cent of control [2] [%] | kinase still bound, per cent of control [3] [%] | kinase still bound, per cent of control [4] [%] | kinase still bound, per cent of control [5] [%] | kinase still bound, per cent of control [6] [%] | kinase still bound, per cent of control [7] [%] | kinase still bound, per cent of control [8] [%] | kinase still bound, per cent of control [9] [%] | kinase still bound, per cent of control [10] [%] | kinase still bound, per cent of control [11] [%] | kinase still bound, per cent of control [12] [%] | kinase still bound, per cent of control [13] [%] | kinase still bound, per cent of control [14] [%] | kinase still bound, per cent of control [15] [%] | kinase still bound, per cent of control [16] [%] | kinase still bound, per cent of control [17] [%] | kinase still bound, per cent of control [18] [%] | kinase still bound, per cent of control [19] [%] | kinase still bound, per cent of control [20] [%] | also measured
COc1cc(N2CCN(C)CC2)ccc1Nc1ncc2c(n1)N(C)c1ccccc1C(=O)N2C | 100 | 100 | 100 | 100 | 100 | 100 | 100 | 100 | 100 | 100 | 100 | 100 | 100 | 100 | 32 | 100 | 100 | 100 | 100 | 23 | kinase still bound, per cent of control [21]: 100%; kinase still bound, per cent of control [22]: 100%; kinase still bound, per cent of control [23]: 4.9%; kinase still bound, per cent of control [24]: 100%; kinase still bound, per cent of control [25]: 100%; kinase still bound, per cent of control [26]: 100%; kinase still bound, per cent of control [27]: 100%; kinase still bound, per cent of control [28]: 100%; kinase still bound, per cent of control [29]: 100%; kinase still bound, per cent of control [30]: 100%; kinase still bound, per cent of control [31]: 100%; kinase still bound, per cent of control [32]: 100%; kinase still bound, per cent of control [33]: 100%; kinase still bound, per cent of control [34]: 100%; kinase still bound, per cent of control [35]: 100%; kinase still bound, per cent of control [36]: 100%
CCN(CC)CCCCNc1ncc2c(n1)N(C)C(=O)N(c1c(Cl)c(OC)cc(OC)c1Cl)C2 | 100 | 100 | 100 | 100 | 100 | 100 | 100 | 100 | 5.3 | 25 | 3.8 | 100 | 100 | 100 | 100 | 100 | 100 | 100 | 100 | 100 | kinase still bound, per cent of control [21]: 100%; kinase still bound, per cent of control [22]: 100%; kinase still bound, per cent of control [23]: 100%; kinase still bound, per cent of control [24]: 100%; kinase still bound, per cent of control [25]: 100%; kinase still bound, per cent of control [26]: 100%; kinase still bound, per cent of control [27]: 100%; kinase still bound, per cent of control [28]: 100%; kinase still bound, per cent of control [29]: 100%; kinase still bound, per cent of control [30]: 100%; kinase still bound, per cent of control [31]: 100%; kinase still bound, per cent of control [32]: 100%; kinase still bound, per cent of control [33]: 100%; kinase still bound, per cent of control [34]: 100%; kinase still bound, per cent of control [35]: 100%; kinase still bound, per cent of control [36]: 100%
CS(=O)(=O)N1CCN(Cc2cc3nc(-c4cccc5[nH]ncc45)nc(N4CCOCC4)c3s2)CC1 | 100 | 100 | 100 | 100 | 100 | 100 | 100 | 100 | 100 | 100 | 100 | 100 | 100 | 100 | 100 | 100 | 100 | 100 | 100 | 100 | kinase still bound, per cent of control [21]: 100%; kinase still bound, per cent of control [23]: 100%; kinase still bound, per cent of control [24]: 100%; kinase still bound, per cent of control [25]: 100%; kinase still bound, per cent of control [26]: 100%; kinase still bound, per cent of control [27]: 100%; kinase still bound, per cent of control [28]: 100%; kinase still bound, per cent of control [29]: 100%; kinase still bound, per cent of control [30]: 100%; kinase still bound, per cent of control [31]: 100%; kinase still bound, per cent of control [32]: 100%; kinase still bound, per cent of control [33]: 100%; kinase still bound, per cent of control [34]: 100%; kinase still bound, per cent of control [35]: 100%; kinase still bound, per cent of control [36]: 100%
